Measurements taken from publication PMC4818757, “Small molecule inhibitors of the Dishevelled‐CXXC5 interaction are new drug candidates for bone anabolic osteoporosis therapy” (EMBO Molecular Medicine, 2016).

Tests used:
Dvl PDZ domain = target: T1, Dvl PDZ domain (Homo sapiens, UniProt O14640); test: Surface plasmon resonance; format: binding
T1 construct: plasmid DNA encoding Dvl-1247- 341 (the Dvl PDZ domain); His-tag (TEV-cleavable) (cleaved yes); made in house; host or cells: E. coli BL21 (DE3)
T1 sequence (O14640 247-341 limits assumed): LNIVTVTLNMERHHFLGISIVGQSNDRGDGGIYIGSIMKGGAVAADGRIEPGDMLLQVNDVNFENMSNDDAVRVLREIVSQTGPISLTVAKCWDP
Protocol: Studies on the interaction between compounds and Dvl PDZ domain were performed by surface plasmon resonance spectroscopy using the ProteOn™ XPR36 protein interaction array system (Bio‐Rad Laboratories, Inc., Hercules, CA). Purified Dvl PDZ domain was immobilized on a sensor chip, and then, various concentration of KY‐02327 in ProteOn PBS/Tween running buffer (PBS, pH 7.4 with 0.05% Tween 20) was flowed over the chip at a flow rate of 100 μl/min. The refractive index reflecting the mass concentration on the sensor surface is measured according to the manufacturer's instruction. Data were analyzed using ProteOn Manager Software 2.0 (Bio‐Rad Laboratories, Inc.).

[1] = test system: ovariectomized (OVX) mice; test: OVX-induced osteoporosis mouse model; format: in vivo
Protocol: Figure 6 Effects of KY‐02327 on OVX‐induced osteoporosis model mice • A–H Vehicle or 20 mg of KY‐02327 per kg of animal body weight (mpk) was orally administered or 0.06 mpk of the N‐terminal fragment of PTH (amino acids 1‐34) was subcutaneously injected into the Sham‐operated (Sham) or ovariectomized (OVX) mice on 5 sequential days per week for 4 weeks (n = 4). After calcein injection, the prepared femoral sections of the OVX mice were examined under fluorescence microscope to visualize integrated calcein (A, green, arrows). Nuclei were counterstained with DAPI (A, blue). Scale bars, 100 μm. Osteoblast numbers (B) and calcein double‐labeled surfaces (C) were measured in the femoral sections. The mouse femurs were analyzed using micro‐CT, and BMD (D) and BV/TV (E) were calculated from the micro‐CT data. The three‐dimensional images of femoral trabecular bone were reconstructed (F), and trabecular number (G) and trabecular separation (H) were calculated. Data Information: The data are the mean ± s.d. (error bars). Significance was assessed using Kruskal–Wallis test.
This animal study was approved by the Institutional Review Board of Severance Hospital, Yonsei University College of Medicine. The mice were housed in filter‐topped shoebox cages with a computerized environmental control system (MJ LTD, Seoul, Korea). The care and treatment of experimental animals were performed in accordance with institutional guidelines. The room temperature was maintained at 26.5°C with a relative humidity of approximately 40–70%. The mice were given a standard maintenance diet from Dae Han Bio Link (Daejeon, Korea). For OVX mouse experiments, the surgeries were performed with 8‐week‐old female BL6 mice under anesthesia with avertin (2,2,2‐tribromoethanol; Worthington Biochemical, Freehold, NJ) as described previously (Zahoor et al, 2014). After removing the hair, dorsal incisions were made into the dermal layers above both sides of the ovaries using dissection scissors. The connection between the fallopian tube and the uterine horn was cut, and the ovary was removed. The incision was then sutured with 3 single catgut stitches. Sham mice were used as controls. After 4 weeks, the OVX group was divided into three groups for oral administration of vehicle (saline containing 10% Tween‐60) or 20 mg of KY‐02327 per kg of animal body weight (mpk) of KY‐02327, or for subcutaneous injection of 0.06 mpk of N‐terminal fragment of PTH (amino acids 1–34), which were administered for 5 sequential days per week for 4 weeks. The animals were sacrificed, and the organs were harvested for analysis. For the calcein double‐labeling experiment (Pall et al, 1987), calcein (10 mpk in 2% sodium hydrocarbonate, pH 7.4) was injected twice, on the last day of the 2nd and 3rd week. All the mice were randomly assigned to each groups, and the investigators were blinded to the group allocation during the treatments and experiments.
The mouse femurs were scanned using a micro‐CT system (Skyscan 1072; Skyscan, Aartselaar, Belgium). The scanned image data were reconstructed to create 3D images and analyzed using the CT‐Analyzing Program (Skyscan). For femoral trabecular bone analysis, the femurs were scanned with a voxel size of 10 μm, beginning at the end of the growth plate and extending proximally along the diaphysis, and 80 continuous slices (beginning at 0.1 mm from the most proximal aspect of the growth plate in which both condyles were no longer visible) were selected for analysis.
The femurs of OVX mice and the calvariae of 4‐day‐old mice were fixed in 4% paraformaldehyde in PBS. The bones were then decalcified in 10 mM EDTA and embedded in paraffin. Five‐micrometer tissue sections were deparaffinized in 100% xylene followed by re‐hydration with sequential 100% to 50% ethanol washes. The sections were stained with hematoxylin and eosin (H&E), and light micrographs were captured using a SMZ645 Nikon microscope (Nikon, Tokyo, Japan). […]

[2] = target: T2, Cytochrome P450 (CYP) 1A2 (Homo sapiens, UniProt P05177); test: Cytochrome P450 inhibition assay, 1A2; details: 10 μM; 1A2, C29 and 3A4 together
T2 sequence (P05177 1-516): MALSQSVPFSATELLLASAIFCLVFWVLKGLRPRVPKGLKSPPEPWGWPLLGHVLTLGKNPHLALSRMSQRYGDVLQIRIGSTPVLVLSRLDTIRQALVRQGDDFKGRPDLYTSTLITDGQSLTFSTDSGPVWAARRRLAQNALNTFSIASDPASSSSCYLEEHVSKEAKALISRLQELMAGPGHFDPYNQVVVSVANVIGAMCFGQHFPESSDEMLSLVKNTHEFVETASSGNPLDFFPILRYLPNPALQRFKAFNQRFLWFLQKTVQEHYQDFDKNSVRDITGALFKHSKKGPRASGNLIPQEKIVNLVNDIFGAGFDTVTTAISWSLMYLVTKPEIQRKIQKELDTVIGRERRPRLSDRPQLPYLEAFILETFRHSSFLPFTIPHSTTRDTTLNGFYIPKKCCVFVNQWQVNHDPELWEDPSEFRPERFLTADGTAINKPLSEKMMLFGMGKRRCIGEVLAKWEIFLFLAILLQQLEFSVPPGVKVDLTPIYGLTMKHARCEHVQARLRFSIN

CYP3A4 = CYP3A4 (Homo sapiens, UniProt P08684); test: in vitro; details: probe fluorogenic P450 substrates
Sequence of CYP3A4 (P08684 whole entry): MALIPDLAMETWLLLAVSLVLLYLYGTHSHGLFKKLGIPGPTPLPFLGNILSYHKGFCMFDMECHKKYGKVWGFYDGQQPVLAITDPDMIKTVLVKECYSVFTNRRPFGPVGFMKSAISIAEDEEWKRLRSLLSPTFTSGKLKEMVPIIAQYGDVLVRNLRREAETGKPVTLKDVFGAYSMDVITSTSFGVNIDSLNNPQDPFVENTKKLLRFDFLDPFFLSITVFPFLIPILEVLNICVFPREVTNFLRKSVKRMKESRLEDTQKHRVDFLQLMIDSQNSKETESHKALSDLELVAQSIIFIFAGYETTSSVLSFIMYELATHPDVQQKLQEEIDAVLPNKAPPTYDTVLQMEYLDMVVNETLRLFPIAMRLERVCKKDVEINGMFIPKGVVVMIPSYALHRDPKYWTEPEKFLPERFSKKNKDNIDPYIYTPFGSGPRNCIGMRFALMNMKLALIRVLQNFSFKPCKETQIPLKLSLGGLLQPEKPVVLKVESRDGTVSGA

[3] = target: CYP C29 (so in the source); probably CYP2C9) (Homo sapiens, UniProt P11712); test: Cytochrome P450 inhibition assay, C29; details: probe fluorogenic P450 substrates
Sequence of CYP C29 (so in the source); probably CYP2C9) (P11712 whole entry): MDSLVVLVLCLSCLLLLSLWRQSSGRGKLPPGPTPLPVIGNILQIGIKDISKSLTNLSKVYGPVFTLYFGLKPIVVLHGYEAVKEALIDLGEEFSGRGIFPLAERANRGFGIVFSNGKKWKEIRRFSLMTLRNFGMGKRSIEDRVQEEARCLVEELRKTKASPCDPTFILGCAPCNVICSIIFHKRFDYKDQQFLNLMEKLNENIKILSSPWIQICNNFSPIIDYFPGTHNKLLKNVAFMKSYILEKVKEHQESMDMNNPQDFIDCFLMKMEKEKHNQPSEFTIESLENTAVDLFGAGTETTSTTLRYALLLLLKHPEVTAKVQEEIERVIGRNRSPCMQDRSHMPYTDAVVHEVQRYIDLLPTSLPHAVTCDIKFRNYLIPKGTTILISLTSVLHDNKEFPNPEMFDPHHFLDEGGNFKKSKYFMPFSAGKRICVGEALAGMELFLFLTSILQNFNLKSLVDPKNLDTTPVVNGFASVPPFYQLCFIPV
Source text: Appendix Table S4. Cytochrome P450 (CYP) inhibition assay with 10 µ M KY-

[4] = KY‐02327 20 mpk oral, PTH 0.06 mpk subcutaneous, 4 weeks
[5] = KY‐02327 20 mpk oral, PTH 0.06 mpk subcutaneous, 5 days per week for 4 weeks

CCOC(=O)c1cc2cc(O)ccc2n1CC(=O)NCCN1CCCCC1 [KY‐02327]
binding to Dvl PDZ domain by surface plasmon resonance (Dvl PDZ domain): binds with Dvl PDZ domain in a dose‐dependent manner | histology of livers, lungs, spleens ([1]; 4 weeks treatment, H&E): No histological abnormalities | weight of treated mice ([1]; 4‐week treatment): did not change significantly | destroyed trabecular bones (3D micro-CT images) [1, 4]: rescued | mineral contents of the bone (BMD), femur, micro‐CT [1, 4]: significantly increased | trabecular bone number [1, 4]: increase | trabecular separation [1, 4]: decrease | volume of bone (BV/TV) ([1]; KY‐02327 20 mpk oral, PTH 0.06 mpk subcutaneous, 4 weeks, vs vehicle): increased | calcein double‐labeled surface [1, 5]: increased | new bone formation (calcein-labeled) in femur [1, 5]: recovered | number of osteoblasts [1, 5]: increased | calcein double-labelled surface, fold increase ([1]; OVX mice, 20 mpk oral): approximately 2 fold | number of osteoblasts, fold increase ([1]; OVX mice, 20 mpk oral): approximately 2 fold | inhibitory effect on the liver enzymes (cytochrome P450) [2]: no inhibitory effect | inhibition at 10 µM (CYP3A4): 0% | inhibition at 10 µM [3]: 0%
